# From patent US20250215013A1, “SUBSTITUTED TRICYCLIC COMPOUNDS AS PARP INHIBITORS AND THE USE THEREOF” (IMPACT THERAPEUTICS (SHANGHAI), INC., priority 2022, published 2025)
# Key:
# [1] = biological target: recombinant poly(ADP-ribose) polymerase 1 (PARP1) (Homo sapiens (Human), UniProt P09874)
# [2] = tested on: MDA-MB-436 cells; test: Growth inhibition assay against BRCA mutant human breast cancer MDA-MB-436 cell line (CCK-8); format: cell-based; conditions: proliferation of MDA-MB-436 cells, 7 days
# [3] = biological target: recombinant poly(ADP-ribose) polymerase 2 (PARP2); test: PARP2 chemiluminescent assay; format: biochemical; conditions: inhibition of PARP2 enzyme activity, chemiluminescence
# Sequence of recombinant poly(ADP-ribose) polymerase 1 (PARP1) (P09874 whole entry): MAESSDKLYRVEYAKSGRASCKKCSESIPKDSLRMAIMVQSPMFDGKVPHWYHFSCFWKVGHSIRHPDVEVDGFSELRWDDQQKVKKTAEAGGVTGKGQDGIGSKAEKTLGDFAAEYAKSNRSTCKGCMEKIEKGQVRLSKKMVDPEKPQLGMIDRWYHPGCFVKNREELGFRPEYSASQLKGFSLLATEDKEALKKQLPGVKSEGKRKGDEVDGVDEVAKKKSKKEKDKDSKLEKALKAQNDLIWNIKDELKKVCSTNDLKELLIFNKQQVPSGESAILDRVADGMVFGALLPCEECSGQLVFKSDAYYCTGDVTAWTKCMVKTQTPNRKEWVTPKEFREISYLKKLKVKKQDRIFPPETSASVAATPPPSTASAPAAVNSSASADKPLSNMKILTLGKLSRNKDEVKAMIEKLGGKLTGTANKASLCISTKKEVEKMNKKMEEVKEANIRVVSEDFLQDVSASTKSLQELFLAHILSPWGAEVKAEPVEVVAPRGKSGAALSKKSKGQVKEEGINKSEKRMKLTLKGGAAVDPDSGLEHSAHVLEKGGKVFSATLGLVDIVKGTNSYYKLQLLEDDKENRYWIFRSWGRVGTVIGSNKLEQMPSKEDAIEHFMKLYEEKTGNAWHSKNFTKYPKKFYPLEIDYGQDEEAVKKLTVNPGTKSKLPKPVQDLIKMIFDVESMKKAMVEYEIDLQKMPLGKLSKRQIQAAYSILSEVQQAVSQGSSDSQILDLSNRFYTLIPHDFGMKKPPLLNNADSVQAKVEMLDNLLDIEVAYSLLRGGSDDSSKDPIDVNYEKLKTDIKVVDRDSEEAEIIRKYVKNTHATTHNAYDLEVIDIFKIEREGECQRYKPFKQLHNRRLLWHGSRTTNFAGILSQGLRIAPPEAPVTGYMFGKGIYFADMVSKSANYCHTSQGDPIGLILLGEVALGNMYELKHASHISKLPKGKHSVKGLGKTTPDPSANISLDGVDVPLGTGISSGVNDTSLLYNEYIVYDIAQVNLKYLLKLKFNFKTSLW
Structure (SMILES),"IC50 ([2]; Homo sapiens, MDA-MB-436, […])",also measured
"CNC(=O)c1ccc(N2CCN(Cc3ccc4c(c3)[nH]c(=O)c3cn(C)nc34)CC2)c(C)n1 [Example 9, 7-((4-(2-methyl-6-(methylcarbamoyl)pyridin-3-yl)piperazin-1-yl)methyl)-2-methyl-2,5-dihydro-4H-pyrazolo[4,3-c]quinolin-4-one]",3.2 nM,IC50 [1]: 2.45 nM; IC50 [3]: 3280 nM
"CNC(=O)c1ccc(N2CCN(Cc3ccc4c(c3)[nH]c(=O)c3[nH]ccc34)CC2)c(C)n1 [Example 10, 7-((4-(2-methyl-6-(methylcarbamoyl)pyridin-3-yl)piperazin-1-yl)methyl)-3,5-dihydro-4H-pyrrolo[2,3-c]quinolin-4-one]",15.5 nM,IC50 [1]: 8.24 nM; IC50 [3]: > 10000 nM
"CNC(=O)c1ccc(N2CCN(Cc3ccc4c(c3)[nH]c(=O)c3ncoc34)CC2)c(C)n1 [Example 12, 7-((4-(2-methyl-6-(methylcarbamoyl)pyridin-3-yl)piperazin-1-yl)methyl)oxazolo[4,5-c]quinolin-4(5H)-one]",1.15 nM,IC50 [1]: 1.11 nM; IC50 [3]: 6370 nM
"CNC(=O)c1ccc(N2CCN(Cc3ccc4c(c3)[nH]c(=O)c3ocnc34)CC2)c(C)n1 [Example 14, 7-((4-(2-methyl-6-(methylcarbamoyl)pyridin-3-yl)piperazin-1-yl)methyl)oxazolo[5,4-c]quinolin-4(5H)-one]",21.3 nM,IC50 [1]: 1.86 nM; IC50 [3]: > 10000 nM
"CNC(=O)c1ccc(N2CCN(Cc3ccc4c([nH]c(=O)c5occc54)c3F)CC2)cn1 [Example 148, 6-fluoro-7-((4-(6-(methylcarbamoyl)pyridin-3-yl)piperazin-1-yl)methyl)furo[2,3-c]quinolin-4(5H)-one]",29.2 nM,
"CNC(=O)c1ccc(N2CCN(Cc3ccc4c([nH]c(=O)c5cocc54)c3F)CC2)cn1 [Example 149, 6-fluoro-7-((4-(6-(methylcarbamoyl)pyridin-3-yl)piperazin-1-yl)methyl)furo[3,4-c]quinolin-4(5H)-one]",74.5 nM,
"CNC(=O)c1ccc(N2CCN(Cc3ccc4c([nH]c(=O)c5ccoc54)c3F)CC2)cn1 [Example 150, 6-fluoro-7-((4-(6-(methylcarbamoyl)pyridin-3-yl)piperazin-1-yl)methyl)furo[3,2-c]quinolin-4(5H)-one]",11.5 nM,
"CNC(=O)c1ccc(N2CCN(Cc3ccc4c([nH]c(=O)c5c(C)cnn54)c3F)CC2)cn1 [Example 153, 6-fluoro-3-methyl-7-((4-(6-(methylcarbamoyl)pyridin-3-yl)piperazin-1-yl)methyl)pyrazolo[1,5-a]quinoxalin-4(5H)-one]",23.6 nM,
"CNC(=O)c1ccc(N2CCN(Cc3ccc4c([nH]c(=O)c5c(C)cnn54)c3F)CC2)c(F)c1 [Example 154, 6-fluoro-7-((4-(2-fluoro-4-(methylcarbamoyl)phenyl)piperazin-1-yl)methyl)-3-methylpyrazolo[1,5-a]quinoxalin-4(5H)-one]",95.9 nM,
"CNC(=O)c1ccc(N2CCN(Cc3ccc4c([nH]c(=O)c5c(C)cnn54)c3F)CC2)c(Cl)c1 [Example 155, 6-fluoro-7-((4-(2-chloro-4-(methylcarbamoyl)phenyl)piperazin-1-yl)methyl)-3-methylpyrazolo[1,5-a]quinoxalin-4(5H)-one]",66.5 nM,
"Cc1cnn2c1c(=O)[nH]c1c(F)c(CN3CCN(c4ccc(C(=O)N[C@@H]5CCOC5)nc4F)CC3)ccc12 [Example 156, (R)-6-fluoro-7-((4-(2-fluoro-6-((tetrahydrofuran-3-yl)carbamoyl)pyridin-3-yl)piperazin-1-yl)methyl)-3-methylpyrazolo[1,5-a]quinoxalin-4(5H)-one]",6.08 nM,
"CNc1nccc2cc(N3CCN(Cc4ccc5c([nH]c(=O)c6c(C)cnn65)c4F)CC3)cnc12 [Example 157, 6-fluoro-3-methyl-7-((4-(8-(methylamino)-1,7-naphthyridin-3-yl)piperazin-1-yl)methyl)pyrazolo[1,5-a]quinoxalin-4(5H)-one]",42.3 nM,
"Cc1cnn2c1c(=O)[nH]c1c(F)c(CN3CCN(c4ccc(-c5ncc[nH]5)nc4)CC3)ccc12 [Example 158, 7-((4-(6-(1H-imidazol-2-yl)pyridin-3-yl)piperazin-1-yl)methyl)-6-fluoro-3-methylpyrazolo[1,5-a]quinoxalin-4(5H)-one]",98.2 nM,
"CNC(=O)c1ccc(N2CCN(Cc3ccc4c([nH]c(=O)c5c(C)cnn54)c3F)CC2)c(C2CC2)n1 [Example 160, 7-((4-(2-cyclopropyl-6-(methylcarbamoyl)pyridin-3-yl)piperazin-1-yl)methyl)-6-fluoro-3-methylpyrazolo[1,5-a]quinoxalin-4(5H)-one]",> 100 nM,
"CNC(=O)c1ccc(N2CCN(Cc3ccc4c([nH]c(=O)c5c(C)cnn54)c3F)CC2)cc1F [Example 161, 6-fluoro-7-((4-(3-fluoro-4-(methylcarbamoyl)phenyl)piperazin-1-yl)methyl)-3-methylpyrazolo[1,5-a]quinoxalin-4(5H)-one]",> 100 nM,
"CNC(=O)c1ccc(N2CCN(Cc3ccc4c([nH]c(=O)c5c(C)cnn54)c3F)CC2)c(C)c1 [Example 162, 6-fluoro-7-((4-(2-methyl-4-(methylcarbamoyl)phenyl)piperazin-1-yl)methyl)-3-methylpyrazolo[1,5-a]quinoxalin-4(5H)-one]",20.1 nM,
"Cc1cnn2c1c(=O)[nH]c1c(F)c(CN3CCN(c4ccc(C#N)nc4F)CC3)ccc12 [Example 164, 6-fluoro-7-((4-(2-fluoro-6-cyanopyridin-3-yl)piperazin-1-yl)methyl)-3-methylpyrazolo[1,5-a]quinoxalin-4(5H)-one]",71.3 nM,
"CNC(=O)c1ccc(N2CCN(Cc3cc4[nH]c(=O)c5c(C)cnn5c4cc3F)CC2)c(C)n1 [Example 169, 8-fluoro-7-((4-(2-methyl-6-(methylcarbamoyl)pyridin-3-yl)piperazin-1-yl)methyl)-3-methylpyrazolo[1,5-a]quinoxalin-4(5H)-one]",20.3 nM,
"CNC(=O)c1ccc(N2CCN(Cc3cc4[nH]c(=O)c5c(C)cnn5c4cc3F)CC2)c(Cl)n1 [Example 170, 8-fluoro-7-((4-(2-chloro-6-(methylcarbamoyl)pyridin-3-yl)piperazin-1-yl)methyl)-3-methylpyrazolo[1,5-a]quinoxalin-4(5H)-one]",18.5 nM,
"CNC(=O)c1ccc(N2CCN(Cc3ccc4c([nH]c(=O)c5c(C)cnn54)c3C)CC2)c(F)n1 [Example 171, 7-((4-(2-fluoro-6-(methylcarbamoyl)pyridin-3-yl)piperazin-1-yl)methyl)-3,6-dimethylpyrazolo[1,5-a]quinoxalin-4(5H)-one]",14.4 nM,
"CNC(=O)c1ccc(N2CCN(Cc3ccc4c([nH]c(=O)c5c(C)cnn54)c3C)CC2)c(C)n1 [Example 172, 7-((4-(2-methyl-6-(methylcarbamoyl)pyridin-3-yl)piperazin-1-yl)methyl)-3,6-dimethylpyrazolo[1,5-a]quinoxalin-4(5H)-one]",42.5 nM,
"CNC(=O)c1ccc(N2CCN(Cc3ccc4c([nH]c(=O)c5c(C)cnn54)c3C)CC2)c(Cl)n1 [Example 173, 7-((4-(2-chloro-6-(methylcarbamoyl)pyridin-3-yl)piperazin-1-yl)methyl)-3,6-dimethylpyrazolo[1,5-a]quinoxalin-4(5H)-one]",23.2 nM,
"CNC(=O)c1ccc(N2CCN(Cc3ccc4c([nH]c(=O)c5c(C)cnn54)c3Cl)CC2)c(F)n1 [Example 174, 6-chloro-7-((4-(2-fluoro-6-(methylcarbamoyl)pyridin-3-yl)piperazin-1-yl)methyl)-3-methylpyrazolo[1,5-a]quinoxalin-4(5H)-one]",47 nM,
"CNC(=O)c1ccc(N2CCN(Cc3ccc4c([nH]c(=O)c5c(C)cnn54)c3Cl)CC2)c(C)n1 [Example 175, 6-chloro-7-((4-(2-methyl-6-(methylcarbamoyl)pyridin-3-yl)piperazin-1-yl)methyl)-3-methylpyrazolo[1,5-a]quinoxalin-4(5H)-one]",> 100 nM,
"CNC(=O)c1ccc(N2CCN(Cc3ccc4c([nH]c(=O)c5c(C)cnn54)c3Cl)CC2)c(Cl)n1 [Example 176, 6-chloro-7-((4-(2-chloro-6-(methylcarbamoyl)pyridin-3-yl)piperazin-1-yl)methyl)-3-methylpyrazolo[1,5-a]quinoxalin-4(5H)-one]",> 100 nM,
"CNC(=O)c1ccc(N2CCN(Cc3ccc4c([nH]c(=O)c5c(F)cnn54)c3F)CC2)c(F)n1 [Example 188, 7-((4-(2-fluoro-6-(methylcarbamoyl)pyridin-3-yl)piperazin-1-yl)methyl)-3,6-difluoropyrazolo[1,5-a]quinoxalin-4(5H)-one]",,IC50 [2]: 5.27 nM
"CNC(=O)c1ccc(N2CCN(Cc3ccc4c([nH]c(=O)c5c(F)cnn54)c3Cl)CC2)c(C)n1 [Example 193, 3-fluoro-7-((4-(2-methyl-6-(methylcarbamoyl)pyridin-3-yl)piperazin-1-yl)methyl)-6-chloropyrazolo[1,5-a]quinoxalin-4(5H)-one]",39.7 nM,
"N#Cc1ccc(N2CCN(Cc3ccc4c([nH]c(=O)c5c(F)cnn54)c3F)CC2)c(F)n1 [Example 195, 7-((4-(2-fluoro-6-cyanopyridin-3-yl)piperazin-1-yl)methyl)-3,6-difluoropyrazolo[1,5-a]quinoxalin-4(5H)-one]",8.59 nM,
"CNC(=O)c1ccc(N2CCN(Cc3ccc4c([nH]c(=O)c5c(F)cnn54)c3F)C[C@H]2C)c(F)n1 [Example 196, (R)-7-((4-(2-fluoro-6-(methylcarbamoyl)pyridin-3-yl)-3-methylpiperazin-1-yl)methyl)-3-6-difluoropyrazolo[1,5-a]quinoxalin-4(5H)-one]",15.4 nM,
"CNC(=O)c1ccc(N2CCN(Cc3ccc4c([nH]c(=O)c5c(C(C)C)cnn54)c3F)CC2)c(F)n1 [Example 203, 7-((4-(2-fluoro-6-(methylcarbamoyl)pyridin-3-yl)piperazin-1-yl)methyl)-3-isopropyl-6-fluoropyrazolo[1,5-a]quinoxalin-4(5H)-one]",> 100 nM,
